This note sets out measurements from ChEMBL document CHEMBL1201862, “PubChem BioAssay data set” (2004).

Among the test systems are NCI-H460; KM12; LOX IMVI; SK-MEL-28; PC-3; Malme-3M; A549; CCRF-CEM; HL-60; NCI-H23; K562; DU-145; HT-29; SF-295; NCI/ADR-RES; OVCAR-3; SNB-75; RXF 393; OVCAR-5; SK-OV-3.
Assay in all cases: inhibition of tumour cell growth, NCI panel, 48 h

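Following 48 hours of exposure in 96-well plates, responses at five concentrations were used to interpolate endpoints linearly. At the GI50, growth is halved.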 Calls of active or inactive are those of the source. Cut-off read from the data, not from the text of the source: active = GI50 up to about 1.1 µM and inactive = higher.

Take `Cn1c2c(c3c(=O)[nH]ncc31)CCc1ccccc1-2`: the GI50 in the experiment on NCI-H460 is 16 µM (inactive); with KM12, 23 µM (inactive); with LOX IMVI, 17.6 µM (inactive); in the experiment on SK-MEL-28 it was 26.7 µM (inactive); in the experiment with PC-3, 28.2 µM (inactive); with Malme-3M it was 31.3 µM (inactive). For the same compound, the GI50 with A549 is 29.1 µM (inactive); in the experiment with CCRF-CEM it was 20.8 µM (inactive); in the experiment with HL-60, 27 µM (inactive); with NCI-H23, 26.1 µM (inactive); in the experiment with K562 it was 29.8 µM (inactive); with DU-145, 35.7 µM (inactive). In addition, the GI50 in the experiment with HT-29 is 32.6 µM (inactive); with SF-295, 32.9 µM (inactive); in the experiment on NCI/ADR-RES it was 27.4 µM (inactive); in the experiment with OVCAR-3, 26.4 µM (inactive); in the experiment on SNB-75, 21.2 µM (inactive); with RXF 393, 18.8 µM (inactive). Also, the GI50 is 45.6 µM (inactive) in the experiment on OVCAR-5 and 61.1 µM (inactive) with SK-OV-3.
Consider `O=C1C2C(c3ccccc3)NC(c3ccccc3)C1C(c1ccccc1)NC2c1ccccc1` (centres undefined), for which the GI50 with NCI-H460, with KM12, in the experiment on LOX IMVI, in the experiment on SK-MEL-28, in the experiment on PC-3 and in the experiment with Malme-3M was > 100 µM (inactive) each time. In addition, the GI50 with A549, in the experiment with CCRF-CEM, in the experiment with HL-60, in the experiment with NCI-H23, in the experiment with K562 and with DU-145 was > 100 µM (inactive) in each case. For the same compound, the GI50 in the experiment on HT-29, with SF-295, in the experiment on NCI/ADR-RES, with OVCAR-3, with SNB-75 and with RXF 393 was > 100 µM (inactive) in each case. The GI50 in the experiment with OVCAR-5 and with SK-OV-3 was > 100 µM (inactive) each time.
`CC(=O)c1ccc2c(c1)N(CCCN1CCN(CCO)CC1)c1ccccc1C2`: the GI50 in the experiment with NCI-H460 was 15.8 µM (inactive); with KM12, 15.5 µM (inactive); with LOX IMVI, 15.2 µM (inactive); in the experiment on SK-MEL-28 it was 11.2 µM (inactive); in the experiment on PC-3 it was 14.3 µM (inactive); with Malme-3M it was 18.2 µM (inactive). The GI50 with A549 is 17.9 µM (inactive); in the experiment with CCRF-CEM it was 11.7 µM (inactive); with HL-60 it was 13.8 µM (inactive); in the experiment on NCI-H23 it was 15.8 µM (inactive); in the experiment on K562, 13.5 µM (inactive); in the experiment with DU-145, 14.3 µM (inactive). The GI50 in the experiment with HT-29 was 10 µM (inactive); with SF-295, 17.1 µM (inactive); in the experiment on NCI/ADR-RES, 13.9 µM (inactive); with OVCAR-3 it was 15.5 µM (inactive); with SNB-75, 16.6 µM (inactive); with RXF 393, 15.4 µM (inactive). The values for the GI50 with OVCAR-5 and in the experiment on SK-OV-3 were 17.2 µM (inactive) and 16.3 µM (inactive), respectively.
On to `O=c1c2ncn(C3CC(O)C(CO)O3)c2nnn1Cc1ccccc1[N+](=O)[O-]` (centres undefined), for which the GI50 with NCI-H460, in the experiment on KM12, in the experiment with LOX IMVI, in the experiment on SK-MEL-28, in the experiment on PC-3 and with Malme-3M was > 100 µM (inactive) in each case. The GI50 is > 100 µM (inactive) in the experiment with A549; > 100 µM (inactive) with CCRF-CEM; 57.3 µM (inactive) in the experiment with HL-60; > 100 µM (inactive) in the experiment on NCI-H23; > 100 µM (inactive) with K562; > 100 µM (inactive) with DU-145. The GI50 with HT-29 is > 100 µM (inactive); in the experiment with SF-295, > 100 µM (inactive); in the experiment on NCI/ADR-RES, > 100 µM (inactive); with OVCAR-3 it was 75 µM (inactive); with SNB-75, > 100 µM (inactive); in the experiment on RXF 393 it was 17.8 µM (inactive). The GI50 in the experiment with OVCAR-5 and in the experiment on SK-OV-3 was > 100 µM (inactive) throughout.
As to `Cc1nn(-c2ccccn2)c2c1C(SC#N)=C(C=O)CC2`, the GI50 in the experiment with NCI-H460 was 15.9 µM (inactive); in the experiment on KM12, 16.7 µM (inactive); in the experiment on LOX IMVI it was 15.7 µM (inactive); in the experiment on SK-MEL-28 it was 21.2 µM (inactive); in the experiment on PC-3, 19.7 µM (inactive); with Malme-3M, 18.3 µM (inactive). In addition, the GI50 with A549 was 14.8 µM (inactive); in the experiment on CCRF-CEM it was 2.12 µM (inactive); in the experiment on HL-60, 3.55 µM (inactive); with NCI-H23, 16.4 µM (inactive); in the experiment with K562, 8.07 µM (inactive); with DU-145 it was 14.9 µM (inactive). In addition, the GI50 is 16.1 µM (inactive) in the experiment on HT-29; 30.3 µM (inactive) in the experiment on SF-295; 20.1 µM (inactive) with NCI/ADR-RES; 12.3 µM (inactive) with OVCAR-3; 15.3 µM (inactive) in the experiment with SNB-75; 5.16 µM (inactive) in the experiment with RXF 393. Besides, the figures for the GI50 in the experiment on OVCAR-5 and in the experiment on SK-OV-3 were 4.85 µM (inactive) and 19.3 µM (inactive), respectively.
As for `C=CC(C)(C)n1cc(C2=C(O)C(=O)C(c3cn(C(C)(C)C=C)c4ccccc34)=C(O)C2=O)c2ccccc21`, the GI50 in the experiment with NCI-H460 is 2.84 µM (inactive); with KM12 it was 3.37 µM (inactive); in the experiment on LOX IMVI, 3.13 µM (inactive); in the experiment on SK-MEL-28, 7.33 µM (inactive); in the experiment with PC-3, 2.27 µM (inactive); with Malme-3M it was 2.54 µM (inactive). Also, the GI50 is 3.68 µM (inactive) with A549; 5.25 µM (inactive) in the experiment with CCRF-CEM; 5.09 µM (inactive) in the experiment with HL-60; 2.32 µM (inactive) in the experiment with NCI-H23; 5.62 µM (inactive) with K562; 4.9 µM (inactive) in the experiment on DU-145. The GI50 in the experiment with HT-29 was 3.74 µM (inactive); in the experiment with SF-295, 2.85 µM (inactive); with NCI/ADR-RES, 2.2 µM (inactive); in the experiment on OVCAR-3, 1.96 µM (inactive); in the experiment on SNB-75, 2.36 µM (inactive); in the experiment with RXF 393, 0.435 µM (active). In addition, the GI50 is 1.89 µM (inactive) in the experiment on OVCAR-5 and 2.67 µM (inactive) in the experiment with SK-OV-3.
Take `O=C1CCC(c2ccccc2)(c2ccccc2)CC1`: the GI50 in the experiment with NCI-H460 was > 100 µM (inactive); in the experiment on KM12, > 100 µM (inactive); in the experiment with LOX IMVI, > 100 µM (inactive); in the experiment on SK-MEL-28, > 100 µM (inactive); in the experiment on PC-3, 73.6 µM (inactive); in the experiment with Malme-3M, > 100 µM (inactive). Besides, the GI50 in the experiment on A549 was 49.4 µM (inactive); in the experiment with CCRF-CEM it was 19.8 µM (inactive); in the experiment on HL-60 it was 33.5 µM (inactive); with NCI-H23, 57.7 µM (inactive); in the experiment on K562, 29.7 µM (inactive); with DU-145, > 100 µM (inactive). Moreover, the GI50 with HT-29 is 55.5 µM (inactive); in the experiment with SF-295, > 100 µM (inactive); with NCI/ADR-RES it was 40 µM (inactive); in the experiment on OVCAR-3, > 100 µM (inactive); in the experiment on SNB-75, > 100 µM (inactive); with RXF 393, > 100 µM (inactive). Further, the GI50 with OVCAR-5 and in the experiment on SK-OV-3 was > 100 µM (inactive) each time.
Turning to `Cc1cccc2c1CC(Cc1ccccc1C(=O)O)C2=O` (centres undefined), the GI50 in the experiment with NCI-H460, with KM12, in the experiment with LOX IMVI, in the experiment with SK-MEL-28, in the experiment with PC-3 and in the experiment on Malme-3M was > 100 µM (inactive) each time. The GI50 in the experiment with A549, with CCRF-CEM, in the experiment with HL-60, in the experiment with NCI-H23, in the experiment on K562 and in the experiment on DU-145 was > 100 µM (inactive) throughout. Moreover, the GI50 in the experiment on HT-29, in the experiment with SF-295, in the experiment with NCI/ADR-RES, with OVCAR-3, with SNB-75 and in the experiment with RXF 393 was > 100 µM (inactive) each time. Besides, the GI50 in the experiment on OVCAR-5 and with SK-OV-3 was > 100 µM (inactive) throughout.
Turning to `CN1CCN(c2ccc3[nH]c(-c4ccc5[nH]c(CCCc6ccc(N(CCCl)CCCl)cc6)nc5c4)nc3c2)CC1`, the GI50 in the experiment with NCI-H460 was > 100 µM (inactive); with KM12, > 100 µM (inactive); in the experiment with LOX IMVI it was 60.7 µM (inactive); in the experiment with SK-MEL-28 it was > 100 µM (inactive); with PC-3, > 100 µM (inactive); with Malme-3M, > 100 µM (inactive). For the same compound, the GI50 in the experiment on A549 was > 100 µM (inactive); in the experiment with CCRF-CEM, 75.3 µM (inactive); in the experiment on HL-60, 62.8 µM (inactive); with NCI-H23, > 100 µM (inactive); with K562 it was > 100 µM (inactive); with DU-145, > 100 µM (inactive). Also, the GI50 was 41.7 µM (inactive) in the experiment on HT-29; > 100 µM (inactive) in the experiment with SF-295; > 100 µM (inactive) with NCI/ADR-RES; > 100 µM (inactive) in the experiment with SNB-75; > 100 µM (inactive) in the experiment on RXF 393; > 100 µM (inactive) in the experiment on OVCAR-5. Also, the GI50 with SK-OV-3 is > 100 µM (inactive).
Consider `CCCCCCCCCCCCCCCC(=O)OCC(O)C1OC(=O)C(O)=C1O` (centres undefined), for which the GI50 with NCI-H460 was > 100 µM (inactive); in the experiment with KM12, 23.4 µM (inactive); in the experiment on LOX IMVI it was 26.2 µM (inactive); in the experiment with SK-MEL-28, 20.4 µM (inactive); in the experiment with PC-3, 92 µM (inactive); with Malme-3M, > 100 µM (inactive). Besides, the GI50 in the experiment on A549 was 21.8 µM (inactive); in the experiment with CCRF-CEM it was 23.7 µM (inactive); in the experiment on HL-60 it was 29.5 µM (inactive); in the experiment on NCI-H23, 3.21 µM (inactive); in the experiment on K562 it was 27.8 µM (inactive); in the experiment with DU-145, > 100 µM (inactive). The GI50 in the experiment on HT-29 is 12.8 µM (inactive); in the experiment on SF-295, 20 µM (inactive); in the experiment on NCI/ADR-RES it was 29.3 µM (inactive); with OVCAR-3 it was > 100 µM (inactive); in the experiment on SNB-75, 16.1 µM (inactive); in the experiment with RXF 393 it was 36.7 µM (inactive). The results for the GI50 in the experiment with OVCAR-5 and with SK-OV-3 were 33.9 µM (inactive) and 35.6 µM (inactive), respectively.
